Reference: US20020137929A1, “1 - (3-heterocyclylphenyl) isothiourea, -isourea, -guanidine and -amidine herbicidal agents” (Intellectual Property Department, BASF Aktiengesellschaft, priority 1998, published 2002)

Tests used:
[1] = system: IPOHE (Morningglory, Ivyleaf); experiment: Preemergence herbicidal evaluation; assay type: in vivo, Ipomoea hederacea; conditions: rated 4-5 weeks after treatment
Method in brief: (§1)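 In this greenhouse assay, monocot and dicot seeds are planted in soil and treated prior to emergence with an aqueous acetone spray (about 0.0156-0.500 kg/ha). Plants are assessed visually against control on a 0-9 scale after 4-5 weeks.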

[2] = system: TRZAWR (Wheat, Winter, cv Riband); experiment: Preemergence herbicidal evaluation; assay type: in vivo, Triticum aestivum; conditions: rated 4-5 weeks after treatment
Method in brief: as §1

CYPSE (Flatsedge) = experiment: Postemergence weed control under flooded paddy conditions; assay type: in vivo, Cyperus serotinus; conditions: postemergence weeds
Method in brief: (§2)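 Containers holding 3–5 cm weeds and rice at 1.5–2.5 leaves are flooded to 1.5–3 cm above soil. Compound in 50/50 v/v aqueous/acetone is then added directly to the water, about 0.0313–0.500 kg/ha. Plants are kept in the greenhouse and rated 0–9 visually at 3–4 weeks.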

SETVI (Foxtail, Green) = experiment: Postemergence herbicidal evaluation; assay type: in vivo, Setaria viridis
Method in brief: (§3)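 Scores (0–9) reflect plant stand, vigor, malformation, size, chlorosis and general appearance relative to control, read 4 to 5 weeks after treatment and averaged where tests were repeated. Application: about 0.0156–0.500 kg/ha sprayed at 40 psi onto two-week seedlings.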

ECHCG (Barnyardgrass) [3] = experiment: Preemergence herbicidal evaluation; assay type: in vivo, Echinochloa crus-galli; conditions: rated 4-5 weeks after treatment
Method in brief: as §1

ZEAMX (Corn, Field) [4] = experiment: Preemergence herbicidal evaluation; assay type: in vivo, Zea mays; conditions: rated 4-5 weeks after treatment
Method in brief: as §1

[5] = system: CHEAL (Lambsquarters, Common); experiment: Postemergence herbicidal evaluation; assay type: in vivo, Chenopodium album
Method in brief: as §3

CYPIR (Rice Flatsedge) = experiment: Postemergence weed control under flooded paddy conditions; assay type: in vivo, Cyperus iria; conditions: postemergence weeds
Method in brief: as §2

ZEAMX (Corn, Field) [6] = experiment: Postemergence herbicidal evaluation; assay type: in vivo, Zea mays
Method in brief: as §3

ABUTH (Velvetleaf) [7] = experiment: Preemergence herbicidal evaluation; assay type: in vivo, Abutilon theophrasti; conditions: rated 4-5 weeks after treatment
Method in brief: as §1

[8] = system: GLXMAW (Soybean, Williams); experiment: Preemergence herbicidal evaluation; assay type: in vivo, Glycine max, (L.) Merr. cv Williams; conditions: rated 4-5 weeks after treatment
Method in brief: as §1

ECHCG (Barnyardgrass) [9] = experiment: Postemergence herbicidal evaluation; assay type: in vivo, Echinochloa crus-galli
Method in brief: as §3

ABUTH (Velvetleaf) [10] = experiment: Postemergence herbicidal evaluation; assay type: in vivo, Abutilon theophrasti
Method in brief: as §3

CASOB (Sicklepod) = experiment: Preemergence herbicidal evaluation; assay type: in vivo, Cassia obtusifolia; conditions: rated 4-5 weeks after treatment
Method in brief: as §1

[11] = system: IPOHE (Morningglory, Ivyleaf); experiment: Postemergence herbicidal evaluation; assay type: in vivo, Ipomoea hederacea
Method in brief: as §3

[12] = system: CHEAL (Lambsquarters, Common); experiment: Preemergence herbicidal evaluation; assay type: in vivo, Chenopodium album; conditions: rated 4-5 weeks after treatment
Method in brief: as §1

ORYSAT (Rice, Tebonnet) = experiment: Postemergence herbicidal evaluation; assay type: in vivo, Oryza sativa, (L.) Tebonnet
Method in brief: as §3

[13] = Rate 0.0625 kg/ha, rated 3 to 4 weeks after treatment
[14] = rate 0.1250 kg/ha, 3-4 weeks after treatment
[15] = rate 0.2500 kg/ha, 3-4 weeks after treatment

C#CCOC(=O)CC1SC(=Nc2cc(-n3c(=O)cc(C(F)(F)F)n(C)c3=O)c(F)cc2Cl)N(CC(=O)OCC)C1=O (centres unmarked) [Compound 59, 2-{{2-Chloro-5-[3,6-dihydro-3-methyl-2,6-dioxo-4-(trifluoromethyl)-1(2H)-pyrimidinyl]-4-fluorophenyl}imino}-4-oxo-3,5-thiazolidinediacetic acid, 3-ethyl (2-propynyl) ester]
Preemergence herbicidal rating IPOHE ([1]; rate 0.0156 kg/ha): 1.0
Preemergence herbicidal rating IPOHE ([1]; rate 0.0313 kg/ha): 4.0
Preemergence herbicidal rating IPOHE ([1]; rate 0.0625 kg/ha): 8.5
Preemergence herbicidal rating IPOHE ([1]; rate 0.1250 kg/ha): 9.0
Preemergence herbicidal rating IPOHE ([1]; rate 0.2500 kg/ha): 9.0
Preemergence herbicidal rating IPOHE ([1]; rate 0.5000 kg/ha): 9.0
Preemergence herbicidal rating TRZAWR ([2]; rate 0.0156 kg/ha): 0.0
Preemergence herbicidal rating TRZAWR ([2]; rate 0.0313 kg/ha): 0.0
Preemergence herbicidal rating TRZAWR ([2]; rate 0.0625 kg/ha): 0.0
Preemergence herbicidal rating TRZAWR ([2]; rate 0.1250 kg/ha): 2.0
Preemergence herbicidal rating TRZAWR ([2]; rate 0.2500 kg/ha): 2.0
Herbicidal rating CYPSE (CYPSE (Flatsedge); [13]): 0.0
Herbicidal rating CYPSE (CYPSE (Flatsedge); [14]): 0.0
Herbicidal rating CYPSE (CYPSE (Flatsedge); [15]): 7.0
Postemergence herbicidal rating SETVI (SETVI (Foxtail, Green); Rate 0.0158 kg/ha): 9.0
Postemergence herbicidal rating SETVI (SETVI (Foxtail, Green); Rate 0.0315 kg/ha): 9.0
Postemergence herbicidal rating SETVI (SETVI (Foxtail, Green); Rate 0.0630 kg/ha): 9.0
Preemergence herbicidal rating ECHCG (ECHCG (Barnyardgrass) [3]; rate 0.0156 kg/ha): 0.0
Preemergence herbicidal rating ECHCG (ECHCG (Barnyardgrass) [3]; rate 0.0313 kg/ha): 0.0
Preemergence herbicidal rating ECHCG (ECHCG (Barnyardgrass) [3]; rate 0.0625 kg/ha): 0.5
Preemergence herbicidal rating ECHCG (ECHCG (Barnyardgrass) [3]; rate 0.1250 kg/ha): 2.0
Preemergence herbicidal rating ECHCG (ECHCG (Barnyardgrass) [3]; rate 0.2500 kg/ha): 6.0
Preemergence herbicidal rating ECHCG (ECHCG (Barnyardgrass) [3]; rate 0.5000 kg/ha): 9.0
Preemergence herbicidal rating ZEAMX (ZEAMX (Corn, Field) [4]; rate 0.0156 kg/ha): 1.0
Preemergence herbicidal rating ZEAMX (ZEAMX (Corn, Field) [4]; rate 0.0313 kg/ha): 0.5
Preemergence herbicidal rating ZEAMX (ZEAMX (Corn, Field) [4]; rate 0.0625 kg/ha): 1.5
Preemergence herbicidal rating ZEAMX (ZEAMX (Corn, Field) [4]; rate 0.1250 kg/ha): 3.0
Preemergence herbicidal rating ZEAMX (ZEAMX (Corn, Field) [4]; rate 0.2500 kg/ha): 3.5
Preemergence herbicidal rating ZEAMX (ZEAMX (Corn, Field) [4]; rate 0.5000 kg/ha): 6.0
Postemergence herbicidal rating CHEAL ([5]; Rate 0.0158 kg/ha): 9.0
Postemergence herbicidal rating CHEAL ([5]; Rate 0.0315 kg/ha): 9.0
Postemergence herbicidal rating CHEAL ([5]; Rate 0.0630 kg/ha): 9.0
Herbicidal rating CYPIR (CYPIR (Rice Flatsedge); [13]): 0.0
Herbicidal rating CYPIR (CYPIR (Rice Flatsedge); [14]): 0.0
Herbicidal rating CYPIR (CYPIR (Rice Flatsedge); [15]): 9.0
Postemergence herbicidal rating ZEAMX (ZEAMX (Corn, Field) [6]; Rate 0.0158 kg/ha): 7.5
Postemergence herbicidal rating ZEAMX (ZEAMX (Corn, Field) [6]; Rate 0.0315 kg/ha): 8.0
Postemergence herbicidal rating ZEAMX (ZEAMX (Corn, Field) [6]; Rate 0.0630 kg/ha): 8.5
Preemergence herbicidal rating ABUTH (ABUTH (Velvetleaf) [7]; rate 0.0156 kg/ha): 2.0
Preemergence herbicidal rating ABUTH (ABUTH (Velvetleaf) [7]; rate 0.0313 kg/ha): 6.0
Preemergence herbicidal rating ABUTH (ABUTH (Velvetleaf) [7]; rate 0.0625 kg/ha): 8.5
Preemergence herbicidal rating ABUTH (ABUTH (Velvetleaf) [7]; rate 0.1250 kg/ha): 9.0
Preemergence herbicidal rating ABUTH (ABUTH (Velvetleaf) [7]; rate 0.2500 kg/ha): 9.0
Preemergence herbicidal rating ABUTH (ABUTH (Velvetleaf) [7]; rate 0.5000 kg/ha): 9.0
Preemergence herbicidal rating GLXMAW ([8]; rate 0.0156 kg/ha): 1.0
Preemergence herbicidal rating GLXMAW ([8]; rate 0.0313 kg/ha): 0.5
Preemergence herbicidal rating GLXMAW ([8]; rate 0.0625 kg/ha): 1.0
Preemergence herbicidal rating GLXMAW ([8]; rate 0.1250 kg/ha): 4.0
Preemergence herbicidal rating GLXMAW ([8]; rate 0.2500 kg/ha): 7.0
Preemergence herbicidal rating GLXMAW ([8]; rate 0.5000 kg/ha): 9.0
Postemergence herbicidal rating ECHCG (ECHCG (Barnyardgrass) [9]; Rate 0.0158 kg/ha): 9.0
Postemergence herbicidal rating ECHCG (ECHCG (Barnyardgrass) [9]; Rate 0.0315 kg/ha): 9.0
Postemergence herbicidal rating ECHCG (ECHCG (Barnyardgrass) [9]; Rate 0.0630 kg/ha): 9.0
Postemergence herbicidal rating ABUTH (ABUTH (Velvetleaf) [10]; Rate 0.0158 kg/ha): 9.0
Postemergence herbicidal rating ABUTH (ABUTH (Velvetleaf) [10]; Rate 0.0315 kg/ha): 9.0
Postemergence herbicidal rating ABUTH (ABUTH (Velvetleaf) [10]; Rate 0.0630 kg/ha): 9.0
Preemergence herbicidal rating CASOB (CASOB (Sicklepod); rate 0.0156 kg/ha): 0.0
Preemergence herbicidal rating CASOB (CASOB (Sicklepod); rate 0.0313 kg/ha): 0.0
Preemergence herbicidal rating CASOB (CASOB (Sicklepod); rate 0.0625 kg/ha): 2.0
Preemergence herbicidal rating CASOB (CASOB (Sicklepod); rate 0.1250 kg/ha): 7.0
Preemergence herbicidal rating CASOB (CASOB (Sicklepod); rate 0.2500 kg/ha): 7.5
Preemergence herbicidal rating CASOB (CASOB (Sicklepod); rate 0.5000 kg/ha): 9.0
Postemergence herbicidal rating IPOHE ([11]; Rate 0.0158 kg/ha): 9.0
Postemergence herbicidal rating IPOHE ([11]; Rate 0.0315 kg/ha): 9.0
Postemergence herbicidal rating IPOHE ([11]; Rate 0.0630 kg/ha): 9.0
Preemergence herbicidal rating CHEAL ([12]; rate 0.0156 kg/ha): 9.0
Preemergence herbicidal rating CHEAL ([12]; rate 0.0313 kg/ha): 9.0
Preemergence herbicidal rating CHEAL ([12]; rate 0.0625 kg/ha): 9.0
Preemergence herbicidal rating CHEAL ([12]; rate 0.1250 kg/ha): 9.0
Preemergence herbicidal rating CHEAL ([12]; rate 0.2500 kg/ha): 9.0
Preemergence herbicidal rating CHEAL ([12]; rate 0.5000 kg/ha): 9.0
Postemergence herbicidal rating ORYSAT (ORYSAT (Rice, Tebonnet); Rate 0.0158 kg/ha): 4.5
Postemergence herbicidal rating ORYSAT (ORYSAT (Rice, Tebonnet); Rate 0.0315 kg/ha): 6.0
Postemergence herbicidal rating ORYSAT (ORYSAT (Rice, Tebonnet); Rate 0.0630 kg/ha): 5.5
